Like-named read-outs stand apart in the source and are kept apart here.
Tested on: MM.1S cells
Experiment: Proliferation inhibition (IC50) in MM.1S cells, cell viability assay
Conditions: Homo sapiens, MM1.S, 72 h
[1] = read-out: IC50 (nM), proliferation inhibitory activity of MM.1S cells (half inhibitory concentration)

IC50 [1] [nM]	IC50 (read-out: IC50 against MM.1S cells (proliferation inhibition)) [nM]	SMILES
0.334	–	Cc1ccc(NC(=O)NCCCCSc2cccc3c2CN(C2CCC(=O)NC2=O)C3=O)cc1Cl (stereo not shown) [SIAIS269095, 1-(3-chloro-4-methylphenyl)-3-(4-((2-(2,6-dioxopiperidin-3-yl)-1-oxoisoindolin-4-yl)thio)butyl)urea]
0.11 ± 0.02	–	O=C1CCC(N2Cc3c(SCCCc4ccc(CNC5CCCCC5)cc4)cccc3C2=O)C(=O)N1 (stereo not shown) [SIAIS1227067, 3-(4-((3-(4-((cyclohexylamino)methyl)phenyl)propyl)thio)-1-oxoisoindolin-2-yl)piperidine-2,6-dione]
0.12 ± 0.03	~0.12	O=C1CCC(N2Cc3c(SCCCCCCCCN4CCCCC4)cccc3C2=O)C(=O)N1 (stereo not shown) [SIAIS1220009, 3-(1-oxo-4-((8-(piperidin-1-yl)octyl)thio)isoindolin-2-yl)piperidine-2,6-dione]
0.021	–	O=C1CCC(N2Cc3c(SCc4ccc(CN5C[C@H]6CCCC[C@H]6C5)cc4)cccc3C2=O)C(=O)N1 (stereo partly drawn) [SIAIS1227171, 3-(4-((4-(((3aR,7aS)-octahydro-2H-isoindol-2-yl)methyl)benzyl)thio)-1-oxoisoindolin-2-yl)piperidine-2,6-dione]
1.43 ± 0.3	–	O=C1CCC(N2Cc3c(SCc4nc(CN5CC6CCCCC6C5)cs4)cccc3C2=O)C(=O)N1 (stereo not shown) [SIAIS313188, 3-(4-(((4-((hexahydro-1H-isoindol-2(3H)-yl)methyl)thiazol-2-yl)methyl)thio)-1-oxoisoindolin-2-yl)piperidine-2,6-dione]
0.029	–	O=C1CCC(N2Cc3c(SCc4ccc(CNC56CC7CC(CC(C7)C5)C6)cc4F)cccc3C2=O)C(=O)N1 (stereo not shown) [SIAIS1227179, 3-(4-((4-(((adamantan-1-yl)amino)methyl)-2-fluorobenzyl)thio)-1-oxoisoindolin-2-yl)piperidine-2,6-dione]
4.06 ± 0.64	–	CCN(CC)CCCCCSc1cccc2c1CN(C1CCC(=O)NC1=O)C2=O (stereo not shown) [SIAIS1216139, 3-(4-((5-(diethylamino)pentyl)thio)-1-oxoisoindolin-2-yl)piperidine-2,6-dione]
0.7	–	O=C1CCC(N2Cc3c(SCCCCCCN4CCOCC4)cccc3C2=O)C(=O)N1 (stereo not shown) [SIAIS1220027, 3-(4-((6-morpholinohexyl)thio)-1-oxoisoindolin-2-yl)piperidine-2,6-dione]
0.036 ± 0.01	–	O=C1CCC(N2Cc3c(SCCCCCCNC4C5CC6CC(C5)CC4C6)cccc3C2=O)C(=O)N1 (stereo not shown) [SIAIS1220179, 3-(4-((6-((adamantan-2-yl)amino)hexyl)thio)-1-oxoisoindolin-2-yl)piperidine-2,6-dione]
0.197	–	O=C1CCC(N2Cc3c(SCCCCCCNC4CCCCC4)cccc3C2=O)C(=O)N1 (stereo not shown) [SIAIS1220183, 3-(4-((6-(cyclohexylamino)hexyl)thio)-1-oxoisoindolin-2-yl)piperidine-2,6-dione]
0.61 ± 0.42	–	O=C1CCC(N2Cc3c(SCc4nc(CNCC5CCCCC5)cs4)cccc3C2=O)C(=O)N1 (stereo not shown) [SIAIS355004, 3-(4-(((4-(((cyclohexylmethyl)amino)methyl)thiazol-2-yl)methyl)thio)-1-oxoisoindolin-2-yl)piperidine-2,6-dione]
2.77 ± 1.12	–	O=C1CCC(N2Cc3c(SCc4csc(CN5CCCCCC5)n4)cccc3C2=O)C(=O)N1 (stereo not shown) [SIAIS313165, 3-(4-(((2-(azepan-1-ylmethyl)thiazol-4-yl)methyl)thio)-1-oxoisoindolin-2-yl)piperidine-2,6-dione]
0.025	–	CC1(C)CCC(NCCCCCCCSc2cccc3c2CN(C2CCC(=O)NC2=O)C3=O)CC1 (stereo not shown) [SIAIS1221029, 3-(4-((7-((4,4-dimethylcyclohexyl)amino)heptyl)thio)-1-oxoisoindolin-2-yl)piperidine-2,6-dione]
0.024 ± 0.002	–	O=C1CCC(N2Cc3c(SCc4ccc(CCN5CCCCC5)cc4)cccc3C2=O)C(=O)N1 (stereo not shown) [SIAIS1224153, 3-(1-oxo-4-((4-(2-(piperidin-1-yl)ethyl)benzyl)thio)isoindolin-2-yl)piperidine-2,6-dione]
1.53 ± 0.4	–	CC(=O)NCCCCCSc1cccc2c1CN(C1CCC(=O)NC1=O)C2=O (stereo not shown) [SIAIS1216095, N-(5-((2-(2,6-dioxopiperidin-3-yl)-1-oxoisoindolin-4-yl)thio)pentyl)acetamide]
0.32 ± 0.15	–	CN(C)CCCCCCCCSc1cccc2c1CN(C1CCC(=O)NC1=O)C2=O (stereo not shown) [SIAIS1216149, 3-(4-((8-(dimethylamino)octyl)thio)-1-oxoisoindolin-2-yl)piperidine-2,6-dione]
2.49	–	O=C1CCC(N2C(=O)c3cccc(SCCCc4ccc(CN5CCCCC5)cc4)c3C2=O)C(=O)N1 (stereo not shown) [SIAIS1227039, 2-(2,6-dioxopiperidin-3-yl)-4-((3-(4-(piperidin-1-ylmethyl)phenyl)propyl)thio)isoindoline-1,3-dione]
0.721	–	O=C1CCC(N2Cc3c(SCc4ccc(CNC56CC7CC(CC(O)(C7)C5)C6)cc4)cccc3C2=O)C(=O)N1 (stereo not shown) [SIAIS1227061, 3-(4-((4-(((3-hydroxyadamantan-1-yl)amino)methyl)benzyl)thio)-1-oxoisoindolin-2-yl)piperidine-2,6-dione]

IC50 [1] [nM]	IC50 (read-out: IC50 against MM.1S cells (proliferation inhibition)) [nM]	SMILES
0.258	–	CC1(C)[C@@H]2CC[C@@]1(C)[C@@H](NCCCCCCCSc1cccc3c1C(=O)N(C1CCC(=O)NC1=O)C3=O)C2 (stereo partly drawn) [SIAIS1221177, 2-(2,6-dioxopiperidin-3-yl)-4-((7-(((1R,2S,4R)-1,7,7-trimethylbicyclo[2.2.1]heptan-2-yl)amino)heptyl)thio)isoindoline-1,3-dione]
0.028	–	O=C1CCC(N2Cc3c(SCCCCCCCNC45CC6CC(CC4C6)C5)cccc3C2=O)C(=O)N1 (stereo not shown) [SIAIS1228055, 3-(4-((7-((hexahydro-2,5-methanopentalen-3a(1H)-yl)amino)heptyl)thio)-1-oxoisoindolin-2-yl)piperidine-2,6-dione]
1.59	–	O=C1CCC(N2Cc3c(SCCCCCCCCCS(=O)(=O)CCCC(F)(F)C(F)(F)F)cccc3C2=O)C(=O)N1 (stereo not shown) [SIAIS1220147, 3-(1-oxo-4-((9-((4,4,5,5,5-pentafluoropentyl)sulfonyl)nonyl)thio)isoindolin-2-yl)piperidine-2,6-dione]
4.73	–	O=C1CCC(N2Cc3c(SCCCC(F)(F)C(F)(F)F)cccc3C2=O)C(=O)N1 (stereo not shown) [SIAIS1220133, 3-(1-oxo-4-((4,4,5,5,5-pentafluoropentyl)thio)isoindolin-2-yl)piperidine-2,6-dione]
0.16 ± 0.05	–	CC(C)N(CCCCCCCCSc1cccc2c1CN(C1CCC(=O)NC1=O)C2=O)C(C)C (stereo not shown) [SIAIS1220021, 3-(4-((8-(diisopropylamino)octyl)thio)-1-oxoisoindolin-2-yl)piperidine-2,6-dione]
2.97 ± 0.79	–	O=C1CCC(N2Cc3c(SCc4ccc(CN5CCOCC5)o4)cccc3C2=O)C(=O)N1 (stereo not shown) [SIAIS313126, 3-(4-(((5-(morpholinomethyl)furan-2-yl)methyl)thio)-1-oxoisoindolin-2-yl)piperidine-2,6-dione]
0.04 ± 0.01	–	O=C1CCC(N2Cc3c(SCc4ccc(CN5CCC6(CC5)CC6)cc4)cccc3C2=O)C(=O)N1 (stereo not shown) [SIAIS1227115, 3-(4-((4-((6-azaspiro[2.5]octan-6-yl)methyl)benzyl)thio)-1-oxoisoindolin-2-yl)piperidine-2,6-dione]
2.77	–	O=C1CCC(N2Cc3c(SCCCCCCCCN4CCCNCC4)cccc3C2=O)C(=O)N1 (stereo not shown) [SIAIS1220017, 3-(4-((8-(1,4-diazepan-1-yl)octyl)thio)-1-oxoisoindolin-2-yl)piperidine-2,6-dione]
0.035	–	O=C1CCC(N2Cc3c(SCc4ccc(CNC56CC(C5)C6)cc4)cccc3C2=O)C(=O)N1 (stereo not shown) [SIAIS1222161, 3-(4-((4-((bicyclo[1.1.1]pentan-1-ylamino)methyl)benzyl)thio)-1-oxoisoindolin-2-yl)piperidine-2,6-dione]
7.41	–	O=C1CCC(N2C(=O)c3cccc(SCCc4ccc(CN5CCCCC5)cc4)c3C2=O)C(=O)N1 (stereo not shown) [SIAIS1224163, 2-(2,6-dioxopiperidin-3-yl)-4-((4-(piperidin-1-ylmethyl)phenethyl)thio)isoindoline-1,3-dione]
0.02	–	CC12CC3CC(C)(C1)CC(NCCCCCCCSc1cccc4c1CN(C1CCC(=O)NC1=O)C4=O)(C3)C2 (stereo not shown) [SIAIS1220157, 3-(4-((7-((3,5-dimethyladamantan-1-yl)amino)heptyl)thio)-1-oxoisoindolin-2-yl)piperidine-2,6-dione]
1.62	–	O=C1CCC(N2C(=O)c3cccc(SCCCCCCCN4CCCCC4)c3C2=O)C(=O)N1 (stereo not shown) [SIAIS1221033, 2-(2,6-dioxopiperidin-3-yl)-4-((7-(piperidin-1-yl)heptyl)thio)isoindoline-1,3-dione]
0.311	–	CN1CCN(CCc2ccc(CSc3cccc4c3CN(C3CCC(=O)NC3=O)C4=O)cc2)CC1 (stereo not shown) [SIAIS1227099, 3-(4-((4-(2-(4-methylpiperazin-1-yl)ethyl)benzyl)thio)-1-oxoisoindolin-2-yl)piperidine-2,6-dione]
0.02	–	O=C1CCC(N2C(=O)c3cccc(SCCCCCCCNC45CC6CC(CC(C6)C4)C5)c3C2=O)C(=O)N1 (stereo not shown) [SIAIS1221069, 4-((7-((adamantan-1-yl)amino)heptyl)thio)-2-(2,6-dioxopiperidin-3-yl)isoindoline-1,3-dione]
2.73	–	O=C1CCC(N2Cc3c(SCCCCCCCCS)cccc3C2=O)C(=O)N1 (stereo not shown) [SIAIS1220143, 3-(4-((8-mercaptooctyl)thio)-1-oxoisoindolin-2-yl)piperidine-2,6-dione]
0.26	–	O=C1CCC(N2Cc3c(SCCCCCCCCN4CCC(F)(F)CC4)cccc3C2=O)C(=O)N1 (stereo not shown) [SIAIS1220055, 3-(4-((8-(4,4-difluoropiperidin-1-yl)octyl)thio)-1-oxoisoindolin-2-yl)piperidine-2,6-dione]
0.043	–	O=C1CCC(N2Cc3c(SCCCCCCNC(=O)C45CC6CC(CC(Cl)(C6)C4)C5)cccc3C2=O)C(=O)N1 (stereo not shown) [SIAIS1222145, 3-chloro-N-(6-((2-(2,6-dioxopiperidin-3-yl)-1-oxoisoindolin-4-yl)thio)hexyl)adamantane-1-carboxamide]
43	–	O=C(CCCCN1CCCCC1)NCCSc1cccc2c1CN(C1CCC(=O)NC1=O)C2=O (stereo not shown) [SIAIS1220169, N-(2-((2-(2,6-dioxopiperidin-3-yl)-1-oxoisoindolin-4-yl)thio)ethyl)-5-(piperidin-1-yl)pentanamide]

— patent US12582641B2, “Sulfur-containing compound based on glutarimide skeleton and application thereof” (SHANGHAITECH UNIVERSITY, priority 2019, dated 2026)
